Test results reported in ChEMBL document CHEMBL1150923, “A new cacospongionolide inhibitor of human secretory phospholipase A2 from the Tyrrhenian sponge Fasciospongia cavernosa and absolute configuration of cacospongionolides” (J Nat Prod, 1998).
≈ marks a conversion by molar mass, not a printed value.

What was measured:
[1] = Inhibition of pig pancreatic group1 sPLA2 at 10 uM by liquid scintillation counting; set-up: species or system Sus scrofa
[2] = Inhibition of pig pancreatic group1 sPLA2 by liquid scintillation counting; set-up: species or system Sus scrofa
[3] = target: T1, Phospholipase A2, membrane associated (Homo sapiens, UniProt P14555); assay: Inhibition of human synovial group2 sPLA2 by liquid scintillation counting
T1 sequence (P14555 whole entry): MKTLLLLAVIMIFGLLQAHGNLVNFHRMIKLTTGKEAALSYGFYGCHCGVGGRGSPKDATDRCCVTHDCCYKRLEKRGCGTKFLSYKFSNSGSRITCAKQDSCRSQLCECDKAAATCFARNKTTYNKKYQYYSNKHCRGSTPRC

[4] = Cytotoxicity against human neutrophils by MTT assay; assay type: cell-based; settings: neutrophil
[5] = target: T2, Phospholipase A2, membrane associated (Rattus norvegicus, UniProt P14423); assay: Inhibition of rat air pouch group2 sPLA2 by liquid scintillation counting
T2 sequence (P14423 whole entry): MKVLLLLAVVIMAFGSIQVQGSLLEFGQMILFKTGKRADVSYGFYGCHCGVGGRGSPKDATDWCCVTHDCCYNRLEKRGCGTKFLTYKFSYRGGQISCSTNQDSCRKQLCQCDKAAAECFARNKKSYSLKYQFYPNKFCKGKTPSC

Phospholipase A2 = target: T3, Phospholipase A2 (Apis mellifera, UniProt P00630); assay: Inhibition of bee venom group3 sPLA2 by liquid scintillation counting
T3 sequence (P00630 whole entry): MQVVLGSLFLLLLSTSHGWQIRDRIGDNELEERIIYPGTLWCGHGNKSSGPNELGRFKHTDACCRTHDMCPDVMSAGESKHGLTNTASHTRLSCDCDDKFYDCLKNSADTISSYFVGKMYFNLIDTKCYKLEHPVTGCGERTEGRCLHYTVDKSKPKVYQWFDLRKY

[6] = Toxicity in Artemia salina; assay type: organism-based; settings: in vivo
[7] = Toxicity in Gambusia affinis; assay type: organism-based; settings: in vivo

Structure (SMILES) | IC50 [1] [µM] | IC50 [2] [µM] | IC50 [3] [µM] | Activity [4] | IC50 [5] [µM] | IC50 (Phospholipase A2) [µM] | LC50 [6] [µg/mL] | LC50 [7] [µg/mL]
C=C1CCC[C@H]2[C@](C)(CCC3=CCC(C4=CC(=O)OC4O)OC3)[C@H](C)CC[C@]12C (stereo partly drawn) [CACOSPONGIONOLIDE B] | 64.2 | 4 | 4.3 | Not Active | – | – | – | –
CC1=CCC[C@@H]2[C@@](C)(CCC3=CC[C@H](C4=CC(=O)O[C@H]4O)OC3)[C@@H](C)CC[C@@]12C [CACOSPONGIONOLIDE E] | 5.3 | – | 1.4 | Not Active | 7.8 | 2.8 | 1.29 (≈ 3.22 µM) | 1.01 (≈ 2.52 µM)
C[C@H]1CC[C@@]23C[C@]2(C)CCC[C@@H]3[C@@]1(C)CCC1=CC[C@H](C2=CC(=O)O[C@H]2O)OC1 [CACOSPONGIONOLIDE] | 14.4 | – | 3 | Not Active | – | 2.3 | – | –
CC1=C(CC/C(C)=C/CCC2=CC[C@H](C3=CC(=O)O[C@H]3O)O[C@H]2O)C(C)(C)CCC1 [MANOALIDE] | 32.3 | – | 3.9 | Not Active | – | – | – | –
